Experimental data: US8754206B2, “Metal (III) complex of biuret-amide based macrocyclic ligand as green oxidation catalyst” (Council of Scientific & Industrial Research, priority 2011, dated 2014)

Experiments:
[1] = Catalyzed bleaching of Safranine O by H2O2 and intramolecular inactivation; conditions: pH 11.0, 25° C.
Source text: Safranine O oxidation kinetics was monitored at 525 nm and pH 11 in 0.01 M Phosphate Buffer. The strengths of stock solutions of Safranine O, [Fe^III(biuret-amide)](X═H, NO2) IA, IB complexes and hydrogen peroxide were respectively 2×10^−3 M, 5×10^−5 M and 0.2 M respectively. The extinction coefficient of 3.3×10^4 […] at 525 nm was used to get initial rate in terms of concentration unit (Ms^−1). To get the intramolecular inactivation rate (ki) absorbance change with time was monitored up to complete inactivation of the catalyst. Calculations of rate constants were performed by using Equation (4) and (5).
c. […] For safranine O bleaching, Equation (2) can be simplified to Equation (3) and k2 value can be calculated from the initial rate vs, [Safranine O] data as given in Table 4.
d. Intramolecular Inactivation (ki) Measurement for Safranine O Bleaching at pH 11.0 • The mono exponential intramolecular inactivation rate constant (ki) measurement of the oxidized form of the catalyst was done by the method followed by Collins group. The simplified differential rate law for dye bleaching is given by Equation (3) where Dt and x are total concentrations of the dye and concentration of the bleached dye at time t respectively. Integrating the Equation (3) under the boundary condition x=x∞ at t=t∞ results Equation (4). Equation (5) was derived by replacing the concentration terms by the absorbance term.
From the slope of the double logarithm of the ratio At/A∞ vs. time plot in Equation 6 gives the value of ki (FIG. 13, Table 4). The rate constant k2 is calculated from the intercept of the plot by putting the value of ki.

[2] = Acid (HClO4) catalyzed demetalation kinetics; type: physicochemical; conditions: for k1* (acid catalyzed demetalation): HClO4, 25.0 °C, 350 nm; for half-life at 0.173 mM: aqueous HClO4 solution, pH 1, read-out: t1/2 [pH 1] (converted)
Method: Acid induced demetalation kinetics was monitored in kinetic mode of the spectrophotometer (Perkin-Elmer—λ35) using 1.00 cm quartz cell in thermostatted cell housing. In the all kinetic runs IB was kept constant at 0.173 mM while acid concentration was varied from 0.04 to 3.0 M using HClO4. The pseudo first order rate constants (kd) were calculated from the initial rates at 350 nm (one of the absorption peaks of complex IB) and temperature was kept constant at 25.0±0.5° C. For each set, solution pH was measured with a pH meter (LABINDIA, PICO^+) with calibrated electrode.
(§1) a. Kinetic Studies of Add Catalyzed Demetalation. • [Fe^III(biuret-amide)] catalyst are subject to H^+ catalyzed demetalation, following the Equation 1 according to Scheme 2 described above, kd=k1*[H^+]+k2*[H^+]^2+k3*[H^+]^3 where kd is the first order rate constant.

[3] = Stability towards demetallation at different pH and phosphate buffer ionic strengths (UV-VIS); type: physicochemical; conditions: for demetalation in high concentration phosphate buffer: twenty four hour time scale, 350 nm
Method: In yet another embodiment, the stability of (IA) towards demetallation at different pH and ionic strengths is tested to evaluate the operational stability of the complex of instant invention for possible catalytic reactions in water. […] The stability of this complex is also monitored at different ionic strengths at pH 7. […] The phosphate buffer induced demetallation for similar Fe-TAML's have been studied in details. The proposed mechanism for phosphate buffer induced demetallation involves first the co-ordination of the O—PO(OH)2 into the Fe(III) center followed by the intramolecular attack of the H+ onto the amide N-donors. Complex (IA) has an extra —NMe group which is not bonded to the Fe(III) center. The lone pair on this N-atom resides predominantly in the p-orbital and can possibly be the first site for attack of the intramolecular H+ ion, thereby shielding complex (IA) from phosphate induced demetallation.
as §1

[4] = Catalyzed bleaching of Orange II by H2O2; conditions: for k−1: from kinetic fitting; for k1 / k2: 0.01M Phosphate Buffer
Source text: In another embodiment, to study the efficacy of complex (IA) as H2O2 activating catalyst, its activity towards bleaching of the dye Orange II ([4-[(2-hydroxynaphthyl)azo]-benzene sulphonic acid], Na+ salt) is studied. […] The exponential kinetic curve, that holds for at least 6 half-lives (FIG. 8), indicates the fact that (IA) is oxidatively robust. Therefore, little or no degradation of the catalysts takes places during the course of the oxidation. This is because C—H bond of the —NMe group is situated very far away from the proposed Fe-oxo intermediate, thereby reducing the chances of ligand degradation by intramolecular C—H abstraction as has been proposed before for other Fe-TAML, complexes.
Using same Perkin-Elmer spectrophotometer Orange II bleaching kinetics were carried out in 0.01 M phosphate buffer at 485 nm, one of the absorption peaks of Orange II. pH was varied from 7 to 11. Strength of stock solutions of IB and Orange II were (2×10^−5 M) and (2−20×10^−4 M) respectively. Stock solution of hydrogen peroxide of 2×10^−2 M was made by measuring the optical density at 230 nm (ε=72.8 M^−1 cm^−1). Appropriate amount of stock solutions of Orange II, Fe^III-catalyst (IB) and H2O2 were added consecutively in the 1.00 cm quartz cell during experiments. Extinction coefficients for Orange II of 17,800, 23,000 and 19,400 M^−1 cm^−1 at pH 7, 9 and 11 respectively was used to calculate the initial rates of Orange II oxidation, Plot of concentration versus time was taken up to 10-20% of conversion of the dye compared to the total reaction.
b. Kinetics of IA and IB Catalyzed Bleaching of Orange II by H2O2 • Orange II dye has absorption maxima at 485 nm. Natural oxidant H2O2 slowly oxidizes Orange II but in presence of IA and IB huge catalysis was observed. The kinetic data followed the mechanism shown in Scheme 2. The initial rate of the dye bleaching reaction obeyed Michaelis-Menten type Equation (2) which was derived considering the steady state of oxidized [Fe^III(L2X)] species using mass balance equation [Fe^III]T=[Fe^III(L2X)]]+[Oxidized-[Fe^III L2X)]]. From kinetic fitting it was observed k.1˜0 for both IA and IB. […] In Table 3 all the kinetic parameters related to Orange II bleaching are given in details at 25° C. in 0.01 M Phosphate Buffer.

[5] = Cyclic voltammetry in acetonitrile; type: physicochemical
Source text: The σ-donor ability of (Et4N)2.[Fe^III(biuret-amide)] is studied using cyclic voltammetry. […] The peak observed for (IA) (E1/2 at −0.064 V) can most likely be assigned to a one electron oxidation for a Fe(III)/Fe(IV) couple while the other peak might be due to a ligand centered oxidation process (FIG. 6). On comparison with Fe-TAML complex (II) where a —CMe2 group is present instead of a —NMe group in the six membered ring of the complex, the Fe(III)/Fe(IV) couple for (IA) is found to be approximately 230 mV lower.
Infrared spectra were obtained on a Perkin-Elmer FT-IR spectrum GX instrument. LC-MS from Acquity Waters was used for ESI-MS analysis. EPR spectrum was recorded on a Bruker EMX X-band spectrometer operating at a field modulation of 100 kHz, modulation amplitude of 2. G and microwave radiation power of 2 mW. The solid Fe(III) complex was taken in a quartz tube and the spectrum was recorded at 298K. Cyclic voltammetry (CV) was done on an Autolab PGSTAT30 (Eco-Chemie) instrument in a conventional three-electrode test cell with platinum as the working electrode (WE), platinum wire as quasi reference electrode (RE) and a platinum foil as a counter electrode (CE). The measurements were carried out using a solution of 1 mM of (I) in dry acetonitrile with 0.1 M [n-Bu4N]PF6 as the supporting electrolyte. All reversible couples were confirmed by a linear dependence of peak current vs. the square root of the scan rate over the range of 20-200 mVs^−1.

| SMILES | ki × 10^4 (intramolecular inactivation) [1] [s^−1] | k2 × 10^−3, from Equation (5) [1] [M^−1s^−1] | k2 × 10^−3, from initial rates [1] [M^−1s^−1] | acid induced demetalation compared to compound II [2] | k1* (acid catalyzed demetalation) [2] | half-life at 0.173 mM [2] [h] | demetalation in high concentration phosphate buffer [3] | k−1 [4] | k1 ([4]; pH 7.0, 25° C.) | k2 ([4]; pH 7.0, 25° C.) | k1 ([4]; pH 9.4, 25° C.) | k2 ([4]; pH 9.4, 25° C.) | k1 ([4]; pH 11.0, 25° C.) | k2 ([4]; pH 11.0, 25° C.) | also measured |
| --- | --- | --- | --- | --- | --- | --- | --- | --- | --- | --- | --- | --- | --- | --- | --- |
| CN1C(=O)[N]2C(C)(C)C(=O)[N]3c4ccc([N+](=O)[O-])cc4[N]4C(=O)C(C)(C)[N](C1=O)[Fe]342[Cl] [Catalyst 1B, Tetraethyl ammonium 3,3,6,9,9-pentamethyl-13-nitro-1,4,8,11-tetrahydro-1H benzo[i][1,4,6,8,11]pentaazacyclotridecine-2,5,7,10(6H,11H)-tetraone ferrate] | 3.0 ± 0.2 | 3.8 ± 0.3 | 3.9 ± 0.1 | significantly less | (1.41 ± 0.09) × 10^−3 M^−1s^−1 | 1.33 | insignificant absorption change | ~0 | (1.24 ± 0.10) × 10^3 M^−1s^−1 | (4.1 ± 0.5) × 10^5 M^−1s^−1 | (2.36 ± 0.6) × 10^3 M^−1s^−1 | (4.2 ± 0.4) × 10^5 M^−1s^−1 | (2.4 ± 0.2) × 10^4 M^−1s^−1 | (4.9 ± 0.5) × 10^5 M^−1s^−1 |  |
| CN1C(=O)[N]2C(C)(C)C(=O)[N]3c4ccccc4[N]4C(=O)C(C)(C)[N](C1=O)[Fe]342[Cl] [Catalyst 1A, Tetraethyl ammonium 3,3,6,9,9-pentamethyl-1,4,8,11-tetrahydro-1H-benzo[i][1,4,6,8,11]pentaazacyclotridecine-2,5,7,10(6H,11H)-tetraone ferrate] | 3.7 ± 0.1 | 2.0 ± 0.1 | 2.4 ± 0.1 | significantly less | (3.7 ± 0.5) × 10^−3 M^−1s^−1 | 0.4 | insignificant absorption change | ~0 | (2.0 ± 0.1) × 10^2 M^−1s^−1 | (2.0 ± 0.1) × 10^4 M^−1s^−1 | (2.8 ± 0.2) × 10^3 M^−1s^−1 | (1.12 ± 0.10) × 10^5 M^−1s^−1 | (3.4 ± 0.2) × 10^4 M^−1s^−1 | (1.60 ± 0.10) × 10^5 M^−1s^−1 | Fe(III)/Fe(IV) couple lower than Fe-TAML complex (II) [5]: approximately 230 mV; formal reduction potential E1/2, reversible process (Fe(III)/Fe(IV) couple) ([5]; acetonitrile, 0.1 M [n-Bu4N]PF6, vs Fc+/Fc): −0.064 V; E1/2, quasi-reversible process ([5]; acetonitrile, 0.1 M [n-Bu4N]PF6, vs Fe+/Fc): −0.559 V; stability at low pH ([3]; in presence of HClO4): very good stability up to pH 2; half-life ([3]; pH 5, 0.1M phosphate buffer, 25° C.): ~18 h; complex degraded ([3]; pH 5, 0.1M phosphate buffer, 5 hours, 25° C.): 10%; stability at different ionic strengths ([3]; pH 7, phosphate concentration): remarkably stable up to 0.5 M phosphate concentrations; catalytic activity compared with Fe-TAML ([4]; pH 7 and 9): much faster in oxidizing Orange II; bleaching of the dye Orange II by activation of H2O2 ([4]; pH 11): complete bleaching; pseudo first order rate constant kobs ([4]; pH 11): 0.021 ± 0.001 s⁻¹ |
